Source: patent publication US20100292255A1, “Therapeutic Compounds and Their Use in Treating Diseases and Disorders” (Myriad Pharmaceuticals, Inc., priority 2007, published 2010)

The compounds below were run against T1, purified human Hsp90 (assay: Hsp90 binding assay: displacement of BODIPY-labeled geldanamycin measured by fluorescence polarization). Settings: BODIPY-GM 10 nM, Hsp90 30 nM, overnight at room temperature; read-out: GM displacement from purified Hsp90 measured by FP IC 50.
T1 construct: purified human Hsp90 (Stressgen, SPP-770)
Protocol: Binding of the Example Compounds to purified Hsp90 was assayed by measuring the displacement of BODIPY-labeled geldanamycin (BODIPY-GM) from purified human Hsp90, using a fluorescence polarization assay adapted from Kim et al. (J. Biomolec. Screening, 9(5):375-381 (2004)). Compound dilutions (in 100% DMSO) were added to black-bottom 96-well plates (Greiner Bio-One, Monroe, N.C.) in 2% DMSO final, and equal volumes of BODIPY-GM (10 nM final) and purified human Hsp90 (Stressgen, SPP-770; 30 nM final) (Assay Designs, Ann Arbor, Mich.) in assay buffer (20 mM HEPES-KOH pH 7.3, 50 mM KCl, 5 mM MgCl2, 20 mM Na2MoO4, 0.01% NP-40, 0.1 mg/mL bovine gamma globulin [P2045; Invitrogen, Carlsbad, Calif.], 2 mM DTT) were added sequentially to yield a final volume of 50 microliters. Plates were incubated overnight at room temperature. Parallel and perpendicular fluorescence measurements were read (Analyst AD plate reader; LJL BioSystems, Middletown, Conn.) with excitation/emission wavelengths of 485/530 nm. Background fluorescence (buffer only) was subtracted, and fluorescence polarization (FP) values, expressed in mP units, were calculated from parallel and perpendicular fluorescence readings as follows:
FP=(parallel−perpendicular)/(parallel+perpendicular)*1000.
Percent inhibition was calculated by normalizing the FP values to those obtained in parallel reactions containing DMSO and subtracting these normalized values from 100%. Intrinsic compound fluorescence was independently monitored, and FP data points confounded by compound fluorescence were excluded from the analysis.

SMILES | IC50
Nc1ncnc2c1nc(Sc1cc3occc3cc1Br)n2CCC1CCN(C=O)CC1 [Example Compound 168, 4-(2-{6-Amino-8-[(5-bromo-1-benzofuran-6-yl)thio]-9H-purin-9-yl}ethyl)piperidine-1-carbaldehyde] | 95 nM
CC(C)(C)OC(=O)N1CCC(CCn2c(Sc3cc4c(cc3C=O)OCO4)nc3c(N)ncnc32)CC1 [Example Compound 169, tert-Butyl 4-(2-{6-amino-8-[(6-formyl-1,3-benzodioxol-5-yl)thio]-9H-purin-9-yl}ethyl)piperidine-1-carboxylate] | 1900 nM
COC(=O)c1cc2c(cc1Sc1nc3c(N)ncnc3n1CCC1CCN(C=O)CC1)OCO2 [Example Compound 170, Methyl 6-({6-amino-9-[2-(1-formylpiperidin-4-yl)ethyl]-9H-purin-8-yl}thio)-1,3-benzodioxole-5-carboxylate] | 41 nM
CCOC(=O)c1cc2c(cc1Sc1nc3c(N)ncnc3n1CCC1CCN(C=O)CC1)OCO2 [Example Compound 171, ethyl 6-({6-amino-9-[2-(1-formylpiperidin-4-yl)ethyl]-9H-purin-8-yl}thio)-1,3-benzodioxole-5-carboxylate] | 68 nM
CC(C)(C)OC(=O)N1CCC(CCn2c(Sc3cc4c(cc3Br)CCO4)nc3c(N)ncnc32)CC1 [Example Compound 172, tert-Butyl 4-(2-{6-amino-8-[(5-bromo-2,3-dihydro-1-benzofuran-6-yl)thio]-9H-purin-9-yl}ethyl)piperidine-1-carboxylate] | 300 nM
C[C@H](O)C(=O)N1CCC(CCn2c(Sc3cc4c(cc3Br)CCO4)nc3c(N)ncnc32)CC1 [Example Compound 173, (2S)-1-[4-(2-{6-Amino-8-[(5-bromo-2,3-dihydro-1-benzofuran-6-yl)thio]-9H-purin-9-yl}ethyl)piperidin-1-yl]-1-oxopropan-2-ol] | 35 nM
COC(=O)c1cc2c(cc1Sc1nc3c(N)ncnc3n1CCC1CCNCC1)OCO2 [Example Compound 174, Methyl 6-{[6-amino-9-(2-piperidin-4-ylethyl)-9H-purin-8-yl]thio}-1,3-benzodioxole-5-carboxylate] | 150 nM
CCOC(=O)c1cc2c(cc1Sc1nc3c(N)ncnc3n1CCC1CCNCC1)OCO2 [Example Compound 175, ethyl 6-{[6-amino-9-(2-piperidin-4-ylethyl)-9H-purin-8-yl]thio}-1,3-benzodioxole-5-carboxylate] | 70 nM
Nc1ncnc2c1nc(Sc1cc3ccoc3cc1Br)n2CCC1CCN(C=O)CC1 [Example Compound 176, 4-(2-{6-Amino-8-[(6-bromo-1-benzofuran-5-yl)thio]-9H-purin-9-yl}ethyl)piperidine-1-carbaldehyde] | 900 nM
Nc1ncnc2c1nc(Sc1cc3occc3cc1Cl)n2CCC1CCN(C=O)CC1 [Example Compound 178, 4-(2-{6-Amino-8-[(5-chloro-1-benzofuran-6-yl)thio]-9H-purin-9-yl}ethyl)piperidine-1-carbaldehyde] | 305 nM
Nc1ncnc2c1nc(Sc1cc(Br)c3c(c1)CCO3)n2CCC1CCN(C=O)CC1 [Example Compound 179, 4-(2-{6-Amino-8-[(7-bromo-2,3-dihydro-1-benzofuran-5-yl)thio]-9H-purin-9-yl}ethyl)piperidine-1-carbaldehyde] | 4000 nM
Nc1ncnc2c1nc(Sc1cc3c(cc1Br)OCC3)n2CCC1CCN(C=O)CC1 [Example Compound 180, 4-(2-{6-Amino-8-[(6-bromo-2,3-dihydro-1-benzofuran-5-yl)thio]-9H-purin-9-yl}ethyl)piperidine-1-carbaldehyde] | 400 nM
CC1(C)CCc2cc(Br)c(Sc3nc4c(N)ncnc4n3CCC3CCN(C=O)CC3)cc21 [Example Compound 181, 4-(2-{6-Amino-8-[(6-bromo-3,3-dimethyl-2,3-dihydro-1H-inden-5-yl)thio]-9H-purin-9-yl}ethyl)piperidine-1-carbaldehyde] | 1500 nM
Nc1ncnc2c1nc(Sc1cc(Br)c3occc3c1)n2CCC1CCN(C=O)CC1 [Example Compound 182, 4-(2-{6-Amino-8-[(7-bromo-1-benzofuran-5-yl)thio]-9H-purin-9-yl}ethyl)piperidine-1-carbaldehyde] | > 5000 nM
Nc1ncnc2c1nc(Sc1cc3c(cc1F)OCCO3)n2CCC1CCN(C=O)CC1 [Example Compound 183, 4-(2-{6-Amino-8-[(7-fluoro-2,3-dihydro-1,4-benzodioxin-6-yl)thio]-9H-purin-9-yl}ethyl)piperidine-1-carbaldehyde] | 2900 nM
CN1CCOc2cc(Br)c(Sc3nc4c(N)ncnc4n3CCC3CCN(C=O)CC3)cc21 [Example Compound 184, 4-(2-{6-Amino-8-[(7-bromo-4-methyl-3,4-dihydro-2H-1,4-benzoxazin-6-yl)thio]-9H-purin-9-yl}ethyl)piperidine-1-carbaldehyde] | 310 nM
CN1CCOc2cc(Sc3nc4c(N)ncnc4n3CCC3CCN(C=O)CC3)c(Cl)cc21 [Example Compound 185, 4-(2-{6-Amino-8-[(6-chloro-4-methyl-3,4-dihydro-2H-1,4-benzoxazin-7-yl)thio]-9H-purin-9-yl}ethyl)piperidine-1-carbaldehyde] | 400 nM
CN1CCOc2cc(Sc3nc4c(N)ncnc4n3CCC3CCN(C=O)CC3)c(Br)cc21 [Example Compound 186, 4-(2-{6-Amino-8-[(6-bromo-4-methyl-3,4-dihydro-2H-1,4-benzoxazin-7-yl)thio]-9H-purin-9-yl}ethyl)piperidine-1-carbaldehyde] | 65 nM
CN1CCOc2cc(Sc3nc4c(N)ncnc4n3CCC3CCN(C=O)CC3)ccc21 [Example Compound 187, 4-(2-{6-Amino-8-[(4-methyl-3,4-dihydro-2H-1,4-benzoxazin-7-yl)thio]-9H-purin-9-yl}ethyl)piperidine-1-carbaldehyde] | 5000 nM
Nc1ncnc2c1nc(Sc1cc3c(cc1Cl)OCO3)n2CCC1CCN(C=O)CC1 [Example Compound 188, 4-(2-{6-Amino-8-[(6-chloro-1,3-benzodioxol-5-yl)thio]-9H-purin-9-yl}ethyl)piperidine-1-carbaldehyde] | 205 nM
Nc1ncnc2c1nc(Sc1cc3occc3cc1Br)n2CCC1CCC(F)(F)CC1 [Example Compound 189, 8-[(5-Bromo-1-benzofuran-6-yl)thio]-9-[2-(4,4-difluorocyclohexyl)ethyl]-9H-purin-6-amine] | > 5000 nM
Nc1ncnc2c1nc(Sc1cc3c(cc1Br)OCO3)n2CCC1CCC(F)(F)CC1 [Example Compound 190, 8-[(6-Bromo-1,3-benzodioxol-5-yl)thio]-9-[2-(4,4-difluorocyclohexyl)ethyl]-9H-purin-6-amine] | 650 nM
CC(C)(C)OC(=O)N1CCC(CCn2c(Sc3cc4occc4cc3Br)nc3c(N)ncnc32)CC1 [Example Compound 191, tert-Butyl 4-(2-{6-amino-8-[(5-bromo-1-benzofuran-6-yl)thio]-9H-purin-9-yl}ethyl)piperidine-1-carboxylate] | 2500 nM
CC(C)(C)OC(=O)N1CCC(CCn2c(Sc3cc4c(cc3C(F)(F)F)OCC4)nc3c(N)ncnc32)CC1 [Example Compound 192, tert-Butyl 4-[2-(6-amino-8-{[6-(trifluoromethyl)-2,3-dihydro-1-benzofuran-5-yl]thio}-9H-purin-9-yl)ethyl]piperidine-1-carboxylate] | > 5000 nM
